# Data as given in PubChem BioAssay (NCI).
#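 In this assay, cells in 96-well plates receive the compound at five concentrations for 48 hours. Endpoints are linearly interpolated between the surrounding concentrations. GI50 = concentration required for 50% inhibition of growth. The concentration for full growth arrest is given as TGI.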
# What was measured:
# Assay in all cases: inhibition of tumour cell growth, NCI panel, 48 h
# [1] = tested on: COLO 205 colon
# [2] = tested on: OVCAR-5 ovarian
# [3] = tested on: SK-MEL-28 melanoma
# [4] = tested on: LOX IMVI melanoma
# [5] = tested on: HL-60(TB) leukemia
# [6] = tested on: HOP-62 NSCLC
# [7] = tested on: SW-620 colon
# [8] = tested on: NCI-H522 lung
# [9] = tested on: MDA-MB-231 breast
# [10] = tested on: ACHN renal
# [11] = tested on: HS 578T breast
# [12] = tested on: UACC-62 melanoma
# [13] = tested on: NCI/ADR-RES ovarian
# [14] = tested on: A549 NSCLC
# [15] = tested on: OVCAR-8 ovarian
# [16] = tested on: PC-3 prostate
# [17] = tested on: HT29 colon
# [18] = tested on: HCT-15 colon
# [19] = tested on: U251 CNS
# [20] = tested on: K-562 leukemia
# [21] = tested on: TK-10 renal
# [22] = tested on: NCI-H460 lung
# [23] = tested on: MCF7 breast
# [24] = tested on: IGROV1 ovarian
# [25] = tested on: SF-539 CNS
# [26] = tested on: MDA-MB-435
# [27] = tested on: SN12C renal
# [28] = tested on: SK-OV-3 ovarian
# [29] = tested on: KM12 colon
# [30] = tested on: NCI-H23 lung
# [31] = tested on: SNB-75 CNS
# [32] = tested on: M14 melanoma
# [33] = tested on: OVCAR-3 ovarian
# [34] = tested on: T-47D breast
# [35] = tested on: RXF 393 renal
# [36] = tested on: MALME-3M melanoma
# [37] = tested on: CCRF-CEM leukemia
# [38] = tested on: HCC-2998 colon
# [39] = tested on: MOLT-4 leukemia
# [40] = tested on: SR leukemia
# [41] = tested on: DU-145 prostate
# [42] = tested on: HCT-116 colon
# [43] = tested on: 786-0 renal
# [44] = tested on: OVCAR-4 ovarian
# [45] = tested on: NCI-H226 lung
# [46] = tested on: SNB-19 CNS
# [47] = tested on: RPMI-8226 leukemia
# [48] = tested on: A498 renal
# [49] = tested on: EKVX NSCLC
# [50] = tested on: SK-MEL-2 melanoma
# [51] = tested on: SF-295 CNS
# [52] = tested on: UO-31 renal
# [53] = tested on: SK-MEL-5 melanoma
# [54] = tested on: BT-549 breast
# [55] = tested on: HOP-92 NSCLC
# [56] = tested on: UACC-257 melanoma
# [57] = tested on: CAKI-1 renal
# [58] = tested on: SF-268 CNS
smiles,measurement,setting,value
CCn1c(-c2nonc2N)nc2c(C#CC(C)(C)O)ncc(OC[C@@H]3CCCN3)c21,GI50,[1],2.94 µM
same,TGI,[1],7.62 µM
same,GI50,[2],10.6 µM
same,TGI,[2],> 25 µM
same,GI50,[3],12.1 µM
same,TGI,[3],> 25 µM
same,GI50,[4],5.5 µM
same,TGI,[4],> 19.4 µM
same,GI50,[5],5.63 µM
same,TGI,[5],15 µM
same,GI50,[6],7.07 µM
same,TGI,[6],24.9 µM
same,GI50,[7],6.84 µM
same,TGI,[7],> 25 µM
same,GI50,[8],3.1 µM
same,TGI,[8],6.71 µM
same,GI50,[9],7.46 µM
same,TGI,[9],> 25 µM
same,GI50,[10],8.76 µM
same,TGI,[10],> 25 µM
same,GI50,[11],1.72 µM
same,TGI,[11],> 19.5 µM
same,GI50,[12],7.2 µM
same,TGI,[12],> 25 µM
same,GI50,[13],> 25 µM
same,TGI,[13],> 25 µM
same,GI50,[14],6.96 µM
same,TGI,[14],> 25 µM
same,GI50,[15],6.4 µM
same,TGI,[15],> 25 µM
same,GI50,[16],4.39 µM
same,TGI,[16],> 25 µM
same,GI50,[17],5.15 µM
same,TGI,[17],> 19.7 µM
same,GI50,[18],> 25 µM
same,TGI,[18],> 25 µM
same,GI50,[19],3.03 µM
same,TGI,[19],> 22 µM
same,GI50,[20],9 µM
same,TGI,[20],> 25 µM
same,GI50,[21],1.83 µM
same,TGI,[21],> 21.8 µM
same,GI50,[22],4.51 µM
same,TGI,[22],> 22.6 µM
same,GI50,[23],1.71 µM
same,TGI,[23],9.73 µM
same,GI50,[24],0.676 µM
same,TGI,[24],> 25 µM
same,GI50,[25],1.52 µM
same,TGI,[25],15.8 µM
same,GI50,[26],11.6 µM
same,TGI,[26],> 25 µM
same,GI50,[27],5.26 µM
same,TGI,[27],> 25 µM
same,GI50,[28],0.968 µM
same,TGI,[28],> 19 µM
same,GI50,[29],2.61 µM
same,TGI,[29],18.5 µM
same,GI50,[30],8.64 µM
same,TGI,[30],> 25 µM
same,GI50,[31],0.942 µM
same,TGI,[31],> 21.8 µM
same,GI50,[32],6.95 µM
same,TGI,[32],> 25 µM
same,GI50,[33],2.86 µM
same,TGI,[33],9.22 µM
same,GI50,[34],0.408 µM
same,TGI,[34],> 25 µM
same,GI50,[35],0.189 µM
same,TGI,[35],3.18 µM
same,GI50,[36],> 15.3 µM
same,TGI,[36],> 25 µM
same,GI50,[37],2.33 µM
same,TGI,[37],> 25 µM
same,GI50,[38],3.12 µM
same,TGI,[38],> 25 µM
same,GI50,[39],3.01 µM
same,TGI,[39],> 25 µM
same,GI50,[40],8.19 µM
same,TGI,[40],> 20.2 µM
same,GI50,[41],4.76 µM
same,TGI,[41],> 22.9 µM
same,GI50,[42],5.34 µM
same,TGI,[42],20.2 µM
same,GI50,[43],2.45 µM
same,TGI,[43],> 25 µM
same,GI50,[44],8.88 µM
same,TGI,[44],> 25 µM
same,GI50,[45],8.27 µM
same,TGI,[45],> 24 µM
same,GI50,[46],4.28 µM
same,TGI,[46],> 25 µM
same,GI50,[47],24.8 µM
same,TGI,[47],> 25 µM
same,GI50,[48],0.136 µM
same,TGI,[48],1.97 µM
same,GI50,[49],11.7 µM
same,TGI,[49],> 25 µM
same,GI50,[50],4.56 µM
same,TGI,[50],15 µM
same,GI50,[51],3.07 µM
same,TGI,[51],> 25 µM
same,GI50,[52],13.4 µM
same,TGI,[52],> 25 µM
same,GI50,[53],10.5 µM
same,TGI,[53],> 25 µM
same,GI50,[54],4.77 µM
same,TGI,[54],> 22.8 µM
same,GI50,[55],14.5 µM
same,TGI,[55],> 25 µM
same,GI50,[56],> 25 µM
same,TGI,[56],> 25 µM
same,GI50,[57],> 25 µM
same,TGI,[57],> 25 µM
same,GI50,[58],7.84 µM
same,TGI,[58],> 25 µM
COc1ccc(-c2cn(-c3cc(OC)c(OC)c(OC)c3)c(=O)n2-c2ccccc2)cc1,GI50,[1],> 100 µM
same,TGI,[1],> 100 µM
same,GI50,[2],> 100 µM
same,TGI,[2],> 100 µM
same,GI50,[3],> 100 µM
same,TGI,[3],> 100 µM
same,GI50,[4],> 100 µM
same,TGI,[4],> 100 µM
same,GI50,[5],28.1 µM
same,TGI,[5],> 100 µM
same,GI50,[6],66.2 µM
same,TGI,[6],> 100 µM
same,GI50,[7],> 100 µM
same,TGI,[7],> 100 µM
same,GI50,[8],66.7 µM
same,TGI,[8],> 100 µM
same,GI50,[9],> 100 µM
same,TGI,[9],> 100 µM
same,GI50,[10],> 100 µM
same,TGI,[10],> 100 µM
same,GI50,[11],53.2 µM
same,TGI,[11],> 100 µM
same,GI50,[12],53 µM
same,TGI,[12],> 100 µM
same,GI50,[13],74.6 µM
same,TGI,[13],> 100 µM
same,GI50,[14],> 100 µM
same,TGI,[14],> 100 µM
same,GI50,[15],> 100 µM
same,TGI,[15],> 100 µM
same,GI50,[16],> 100 µM
same,TGI,[16],> 100 µM
same,GI50,[17],60.6 µM
same,TGI,[17],> 100 µM
same,GI50,[18],52.6 µM
same,TGI,[18],> 100 µM
same,GI50,[19],> 100 µM
same,TGI,[19],> 100 µM
same,GI50,[20],> 100 µM
same,TGI,[20],> 100 µM
same,GI50,[21],> 100 µM
same,TGI,[21],> 100 µM
same,GI50,[22],> 100 µM
same,TGI,[22],> 100 µM
same,GI50,[23],86 µM
same,TGI,[23],> 100 µM
same,GI50,[24],27.6 µM
same,TGI,[24],> 100 µM
same,GI50,[25],> 100 µM
same,TGI,[25],> 100 µM
same,GI50,[26],> 100 µM
same,TGI,[26],> 100 µM
same,GI50,[27],84.3 µM
same,TGI,[27],> 100 µM
same,GI50,[28],> 100 µM
same,TGI,[28],> 100 µM
same,GI50,[29],> 100 µM
same,TGI,[29],> 100 µM
same,GI50,[30],> 100 µM
same,TGI,[30],> 100 µM
same,GI50,[31],30.7 µM
same,TGI,[31],> 100 µM
same,GI50,[32],> 100 µM
same,TGI,[32],> 100 µM
same,GI50,[33],43.1 µM
same,TGI,[33],> 100 µM
same,GI50,[34],27.3 µM
same,TGI,[34],> 100 µM
same,GI50,[35],45.4 µM
same,TGI,[35],> 100 µM
same,GI50,[36],38.5 µM
same,TGI,[36],> 100 µM
same,GI50,[37],> 100 µM
same,TGI,[37],> 100 µM
same,GI50,[38],> 100 µM
same,TGI,[38],> 100 µM
same,GI50,[39],> 100 µM
same,TGI,[39],> 100 µM
same,GI50,[40],50.1 µM
same,TGI,[40],> 100 µM
same,GI50,[41],> 100 µM
same,TGI,[41],> 100 µM
same,GI50,[42],> 100 µM
same,TGI,[42],> 100 µM
same,GI50,[43],38.9 µM
same,TGI,[43],> 100 µM
same,GI50,[44],51.7 µM
same,TGI,[44],> 100 µM
same,GI50,[45],> 100 µM
same,TGI,[45],> 100 µM
same,GI50,[46],> 100 µM
same,TGI,[46],> 100 µM
same,GI50,[47],> 100 µM
same,TGI,[47],> 100 µM
same,GI50,[48],> 100 µM
same,TGI,[48],> 100 µM
same,GI50,[49],> 100 µM
same,TGI,[49],> 100 µM
same,GI50,[50],> 100 µM
same,TGI,[50],> 100 µM
same,GI50,[51],> 100 µM
same,TGI,[51],> 100 µM
same,GI50,[52],> 100 µM
same,TGI,[52],> 100 µM
same,GI50,[53],21.5 µM
same,TGI,[53],> 100 µM
same,GI50,[54],> 100 µM
same,TGI,[54],> 100 µM
same,GI50,[55],11.6 µM
same,TGI,[55],36.9 µM
same,GI50,[56],> 100 µM
same,TGI,[56],> 100 µM
same,GI50,[57],> 100 µM
same,TGI,[57],> 100 µM
same,GI50,[58],> 100 µM
same,TGI,[58],> 100 µM
